Reference: patent US11484539B2, “Compounds and their uses for alleviating menopause-associated symptoms” (Estetra SPRL, priority 2018, dated 2022)

System: post-menopausal women
Assay: Weekly frequency of moderate to severe VMS, dose-finding study
Assay type: in vivo
Conditions: for Difference with placebo, LS adjusted mean, absolute change in weekly frequency of moderate to severe VMS / Difference with placebo, LS adjusted mean, relative change in weekly frequency of moderate to severe VMS: 10 mg E4 vs placebo; for Differences with placebo (including ineffective doses 2.5 mg and 5 mg), relative change in weekly frequency of moderate to severe VMS, LS adjusted mean / Differences with placebo (including ineffective doses 2.5 mg and 5 mg), relative change in weekly frequency of moderate to severe VMS, p_value: 10.0 mg vs 0 mg; for Relative change in weekly frequency of moderate to severe VMS, LS adjusted mean: analysis with placebo grouped with 2.5 and 5 mg; for LS adjusted mean change from baseline in weekly frequency of moderate to severe VMS / LS adjusted mean relative change (%) from baseline in weekly frequency of moderate to severe VMS: 15 mg E4
From the text: To determine the Minimum Effective Dose (MED), firstly the selection criteria required that patients presented at least 7 moderate to severe VMS/day or at least 50 moderate to severe VMS/week in the week preceding randomization. Secondly, a placebo group was included in a double-blind fashion. Thirdly, the total patient number was such that statistical significance could be obtained between separate arms of the study. Fourthly, the absolute change from baseline in weekly frequency of moderate to severe VMS was taken into account. An analysis of covariance (ANCOVA) was performed based on the untransformed change in weekly frequency of moderate to severe VMS from baseline. Finally, the change in severity from baseline was evaluated. For this, the Severity Scoring System of VMS was documented by the subjects as follows: • a score of Mild (1) for a sensation of heat without sweating; • a score of Moderate (2) for a sensation of heat with sweating/the subject is able to continue activity; and • a score of Severe (3) for a sensation of heat with sweating/which causes cessation of activity.
Enrolment was approximately 18 months. Individual subject participation was up to 27 weeks: up to 6 weeks pre-screening and washout, up to 4 weeks screening and run-in period, up to 91 days (13 weeks) of E4/placebo treatment followed by 2 weeks (14 days) of progestin therapy and a Follow up visit 1 week after completion of progestin therapy in non-hysterectomised subjects only.
To define the minimum effective dose (MED) of the oral dose of E4 by evaluating changes in frequency and in severity of moderate to severe vasomotor symptoms (VMS).
This was a prospective, multicentre, randomised, placebo-controlled, double-blinded, dose-finding study.
Eligible subjects were hysterectomised and non-hysterectomised post-menopausal women aged 40 to 65 years, inclusive, presenting at least 7 moderate to severe hot flushes/day or at least 50 moderate to severe hot flushes/week.
The subjects have met all of the following inclusion criteria at the randomization visit. These criteria were assessed during the screening period: • 1. Women aged 40 to 65 years, inclusive, presenting at least 7 moderate to severe hot flushes/day or at least 50 moderate to severe hot flushes/week in the week preceding randomization. • 2. Body Mass Index (BMI) between 18.0 and 35.0 kg/m^2, inclusive. • 3. Post-menopausal status defined as levels of follicle stimulating hormone (FSH) >40 IU/L and: • amenorrhoea for at least 12 consecutive months or, • amenorrhoea for at least 6 months with estradiol (E2)<20 pg/mL or, • at least 6 weeks post-surgical bilateral oophorectomy with or without hysterectomy with a copy of the pathology report or a statement on letterhead from the subject's physician documenting both ovaries were removed is required. • 4. For non-hysterectomised women: intact uterus with bi-layer endometrial thickness […] on TVUS. • 5. Negative pregnancy test. • 6. Good physical and mental health, in the judgement of the Principal Investigator (PI), on the basis of medical, surgical and gynaecological history, physical examination, gynaecological examination, clinical laboratory, and vital signs. • 7. Subject has provided signed and dated written informed consent before admission to the study. • 8. Subject is able to understand and comply with the protocol requirements, instructions, and protocol-stated restrictions. Exclusion Criteria:
All treatments (Estetrol, hereinafter, E4, [2.5 mg, 5 mg, 10 mg, 15 mg] capsule) were administered once daily (QD) per os for at least 12 consecutive weeks until the last biological assessments (Day 91 maximum) had been performed.
In order to analyse the data recorded in this study, treatment groups have been compared using an ANCOVA (analysis of covariance) with respect to the change in weekly frequency of moderate to severe VMS from baseline to weeks 4 and 12. […]

[1] = week 4, ANCOVA with study centre
[2] = week 12, ANCOVA with study centre

C[C@]12CC[C@@H]3c4ccc(O)cc4CC[C@H]3[C@@H]1[C@@H](O)[C@@H](O)[C@@H]2O [E4, 1,3,5 (10)-estratrien-3,15alpha,16alpha,17beta-tetrol]
Mean change from baseline in weekly frequency of moderate to severe VMS (10 mg E4 QD per os, week 8): −44.46
Relative change (% from baseline) in weekly frequency of moderate to severe VMS, mean (10 mg E4 QD per os, week 8): −68%
Mean change from baseline in weekly frequency of moderate to severe VMS (10 mg E4 QD per os, week 9): −45.19
Relative change (% from baseline) in weekly frequency of moderate to severe VMS, mean (10 mg E4 QD per os, week 9): −69%
Mean change from baseline in weekly frequency of moderate to severe VMS (10 mg E4 QD per os, week 10): −45.93
Relative change (% from baseline) in weekly frequency of moderate to severe VMS, mean (10 mg E4 QD per os, week 10): −70%
Mean change from baseline in weekly frequency of moderate to severe VMS (10 mg E4 QD per os, week 11): −45.90
Relative change (% from baseline) in weekly frequency of moderate to severe VMS, mean (10 mg E4 QD per os, week 11): −70%
Mean change from baseline in weekly frequency of moderate to severe VMS (10 mg E4 QD per os, week 12): −47.21
Relative change (% from baseline) in weekly frequency of moderate to severe VMS, mean (10 mg E4 QD per os, week 12): −72%
Difference with placebo, LS adjusted mean, absolute change in weekly frequency of moderate to severe VMS [1]: −1.571
Difference with placebo, LS adjusted mean, relative change in weekly frequency of moderate to severe VMS [1]: −0.05376
Difference with placebo, LS adjusted mean, absolute change in weekly frequency of moderate to severe VMS (week 4, without site effect): −2.222
Difference with placebo, LS adjusted mean, relative change in weekly frequency of moderate to severe VMS (week 4, without site effect): −0.06517
Difference with placebo, LS adjusted mean, absolute change in weekly frequency of moderate to severe VMS [2]: −2.103
Difference with placebo, LS adjusted mean, relative change in weekly frequency of moderate to severe VMS [2]: −0.05804
Difference with placebo, LS adjusted mean, absolute change in weekly frequency of moderate to severe VMS (week 12, without site effect): −2.603
Difference with placebo, LS adjusted mean, relative change in weekly frequency of moderate to severe VMS (week 12, without site effect): −0.06624
Differences with placebo (including ineffective doses 2.5 mg and 5 mg), relative change in weekly frequency of moderate to severe VMS, LS adjusted mean (week 4): −0.07645
Differences with placebo (including ineffective doses 2.5 mg and 5 mg), relative change in weekly frequency of moderate to severe VMS, p_value (week 4): 0.2615
Differences with placebo (including ineffective doses 2.5 mg and 5 mg), relative change in weekly frequency of moderate to severe VMS, LS adjusted mean (week 12): −0.08276
Differences with placebo (including ineffective doses 2.5 mg and 5 mg), relative change in weekly frequency of moderate to severe VMS, p_value (week 12): 0.1798
Relative change (% from baseline) in weekly frequency of moderate to severe VMS, mean (10 mg, Week 12): −72%
Relative change (% from baseline) in weekly frequency of moderate to severe VMS, mean (10 mg, week 0): 0%
Relative change (% from baseline) in weekly frequency of moderate to severe VMS, mean (10 mg, week 1): −21%
Relative change (% from baseline) in weekly frequency of moderate to severe VMS, mean (10 mg, week 2): −37%
Relative change (% from baseline) in weekly frequency of moderate to severe VMS, mean (10 mg, week 3): −48%
Relative change (% from baseline) in weekly frequency of moderate to severe VMS, mean (10 mg, week 4): −55%
Relative change in weekly frequency of moderate to severe VMS, LS adjusted mean (10 mg, week 4): −0.5442
Relative change (% from baseline) in weekly frequency of moderate to severe VMS, mean (10 mg, week 5): −60%
Relative change (% from baseline) in weekly frequency of moderate to severe VMS, mean (10 mg, week 6): −65%
Relative change (% from baseline) in weekly frequency of moderate to severe VMS, mean (10 mg, week 7): −66%
Relative change (% from baseline) in weekly frequency of moderate to severe VMS, mean (10 mg, week 8): −68%
Relative change (% from baseline) in weekly frequency of moderate to severe VMS, mean (10 mg, week 9): −69%
Relative change (% from baseline) in weekly frequency of moderate to severe VMS, mean (10 mg, week 10): −70%
Relative change (% from baseline) in weekly frequency of moderate to severe VMS, mean (10 mg, week 11): −70%
Relative change in weekly frequency of moderate to severe VMS, LS adjusted mean (10 mg, week 12): −0.7008
LS adjusted mean change from baseline in weekly frequency of moderate to severe VMS [1]: −43.6
LS adjusted mean relative change (%) from baseline in weekly frequency of moderate to severe VMS [1]: -64.7%
LS adjusted mean change from baseline in weekly frequency of moderate to severe VMS (week 4, without site effect): −44.36
LS adjusted mean relative change (%) from baseline in weekly frequency of moderate to severe VMS (week 4, without site effect): -66%
LS adjusted mean change from baseline in weekly frequency of moderate to severe VMS [2]: −53.83
LS adjusted mean relative change (%) from baseline in weekly frequency of moderate to severe VMS [2]: -80.1%
LS adjusted mean change from baseline in weekly frequency of moderate to severe VMS (week 12, without site effect): −54.91
LS adjusted mean relative change (%) from baseline in weekly frequency of moderate to severe VMS (week 12, without site effect): -82.3%
Mean change from baseline in weekly frequency of moderate to severe VMS (15 mg E4 QD per os, week 1): −14.86
Relative change (% from baseline) in weekly frequency of moderate to severe VMS, mean (15 mg E4 QD per os, week 1): −22%
Mean change from baseline in weekly frequency of moderate to severe VMS (15 mg E4 QD per os, week 2): −29.19
Relative change (% from baseline) in weekly frequency of moderate to severe VMS, mean (15 mg E4 QD per os, week 2): −46%
Mean change from baseline in weekly frequency of moderate to severe VMS (15 mg E4 QD per os, week 3): −36.30
Relative change (% from baseline) in weekly frequency of moderate to severe VMS, mean (15 mg E4 QD per os, week 3): −57%
